Here are results for one compound from article PMC10924921, “Mi-2β promotes immune evasion in melanoma by activating EZH2 methylation” (Nature Communications, 2024).

Experiment [1] relates to B16F10 cell graft. The experiment is described as follows: Antibody-mediated CD8 T-cell depletion and Z36-MP5 treatment. The note with it: Z36-MP5 30 mg/kg, 200 µg anti-CD8. It is filed as in vivo, mouse.
In experiment [2] the test system is tumor-infiltrating lymphocytes in BRafV600E/Ptennull melanoma. Put plainly: Flow cytometry of tumor-infiltrating lymphocytes, genetically engineered model. It is filed as in vivo, mouse. The procedure:
Mi-2β^lox/lox mice were generated and generously provide by Dr. Georgopoulos lab (Massachusetts General Hospital at Harvard Medical School)[31]. Tyr::CreER;BRaf^CA;Pten^lox/lox mice were purchased from Jackson laboratories (Stock No: 013590). All strains of mice were on the background of C57BL/6J background. Gene activation and silencing were induced with intraperitoneal (i.p.) administration of 100 µL/mouse/day tamoxifen (20 mg/mL) for constant 5 days. […] Tumor growth was then monitored each the other day. […] When the following conditions occur, the mouse is regarded as dead and euthanized, including weight loss greater than 15%; significant abdominal distension, especially if it begins to compromise respiratory ability of animal; hunched posture; failure to eat or drink; absence of (or abnormal) feces or urine output; reluctance to move or abnormal gait; Discharges or hemorrhage. Abnormal behavior or vocalizations and tumor size exceeded 1 cm^3. All animal experiments were done according to protocols approved by the ethics committee review board of Boston University and in accordance with the guidelines set forth by the US National Institutes of Health and The ethics committee review board of The 2nd Hospital and School of Medicine, Zhejiang University. […]

For experiment [3], the target named is HIPK4 (Homo sapiens, UniProt Q8NE63). The experiment is described as follows: biochemical. Also noted: KINOMEscan active-site competition binding panel (468 kinase assays), per cent of control at 1000 nM. The note with it: KINOMEscan per cent of control (binding competition); read-out: Percent Control. An excerpt: (§1) Figure S7 / Percent Control
Experiment [4] addresses FGFR2 (Homo sapiens, UniProt P21802). The experiment is described as follows: biochemical. More on the design: KINOMEscan active-site competition binding panel (468 kinase assays), per cent of control at 1000 nM. To be noted: KINOMEscan per cent of control (binding competition); read-out: Percent Control.
Description: as §1

For experiment [5], the target named is T1, PYK2 (Homo sapiens, UniProt Q14289).
T1 construct: gene PTK2B
The experiment is described as follows: biochemical. More on the design: KINOMEscan active-site competition binding panel (468 kinase assays), per cent of control at 1000 nM. To be noted: KINOMEscan per cent of control (binding competition); read-out: Percent Control.
Description: as §1

The target in experiment [6] is T2, MINK (Homo sapiens, UniProt Q8N4C8).
T2 construct: gene MINK1
Put plainly: biochemical. Also noted: KINOMEscan active-site competition binding panel (468 kinase assays), per cent of control at 1000 nM. To be noted: KINOMEscan per cent of control (binding competition); read-out: Percent Control.
Description: as §1

Experiment [7] has as its target T3, CAMK1B (Homo sapiens, UniProt Q6P2M8).
T3 construct: gene PNCK
The experiment is described as follows: biochemical. Also noted: KINOMEscan active-site competition binding panel (468 kinase assays), per cent of control at 1000 nM. The note with it: KINOMEscan per cent of control (binding competition); read-out: Percent Control.
Description: as §1

The target of experiment [8] is MELK (Homo sapiens, UniProt Q14680). The experiment is described as follows: biochemical. More on the design: KINOMEscan active-site competition binding panel (468 kinase assays), per cent of control at 1000 nM. To be noted: KINOMEscan per cent of control (binding competition); read-out: Percent Control.
Description: as §1

In experiment [9] the test system is Cxcl9 and Cxcl10 mRNA in B16F10 cells. The experiment is described as follows: RT-qPCR of Mi-2β target genes in treated cells. The class given is cell-based, mouse. The procedure: Z36-MP5 was chosen for further validation and experimental therapeutics in vivo. […] To investigate its cellular inhibitory activity, B16F10 cells were treated with Z36-MP5 at concentrations ranging from 5 to 100 µM, and the activation of Mi-2β target genes measured by RT-qPCR. […] In addition, the pharmacokinetic properties of Z36-MP5 in Sprague-Dawley rats with administration of intraperitoneal injection dose of 1.0 mg/kg. […] To exclude any effects on the host cells, we implanted Mi-2β-null melanoma cells into C57BL6 mice and then treated the mice with Z36-MP5 accompanied by anti-PD-1 therapy.
The total RNA was extracted with QIAGEN RNeasy kit […] for cDNA synthesis with SuperScript II Reverse Transcriptase (Invitrogen). In total, 40 ng cDNA was used for quantitative real-time PCR amplification by TaqMan Gene Expression Master Mix (Thermo Fisher Scientific). The relative transcript levels were normalized with GAPDH expression. The data were calculated with the comparative CT method. Primers for RT-qPCR assays are shown in Supplementary Data 3.
In general terms: Real-time PCR tracks product formation cycle by cycle.

Experiment [10] concerns the target recombinant purified human Mi-2β protein (Homo sapiens, UniProt Q14839). The experiment is described as follows: FRET-based nucleosome repositioning assay (EpiDyne-FRET). To be noted: for IC50: IC50 against Mi-2β.

Sequence of recombinant purified human Mi-2β protein (Q14839 whole entry): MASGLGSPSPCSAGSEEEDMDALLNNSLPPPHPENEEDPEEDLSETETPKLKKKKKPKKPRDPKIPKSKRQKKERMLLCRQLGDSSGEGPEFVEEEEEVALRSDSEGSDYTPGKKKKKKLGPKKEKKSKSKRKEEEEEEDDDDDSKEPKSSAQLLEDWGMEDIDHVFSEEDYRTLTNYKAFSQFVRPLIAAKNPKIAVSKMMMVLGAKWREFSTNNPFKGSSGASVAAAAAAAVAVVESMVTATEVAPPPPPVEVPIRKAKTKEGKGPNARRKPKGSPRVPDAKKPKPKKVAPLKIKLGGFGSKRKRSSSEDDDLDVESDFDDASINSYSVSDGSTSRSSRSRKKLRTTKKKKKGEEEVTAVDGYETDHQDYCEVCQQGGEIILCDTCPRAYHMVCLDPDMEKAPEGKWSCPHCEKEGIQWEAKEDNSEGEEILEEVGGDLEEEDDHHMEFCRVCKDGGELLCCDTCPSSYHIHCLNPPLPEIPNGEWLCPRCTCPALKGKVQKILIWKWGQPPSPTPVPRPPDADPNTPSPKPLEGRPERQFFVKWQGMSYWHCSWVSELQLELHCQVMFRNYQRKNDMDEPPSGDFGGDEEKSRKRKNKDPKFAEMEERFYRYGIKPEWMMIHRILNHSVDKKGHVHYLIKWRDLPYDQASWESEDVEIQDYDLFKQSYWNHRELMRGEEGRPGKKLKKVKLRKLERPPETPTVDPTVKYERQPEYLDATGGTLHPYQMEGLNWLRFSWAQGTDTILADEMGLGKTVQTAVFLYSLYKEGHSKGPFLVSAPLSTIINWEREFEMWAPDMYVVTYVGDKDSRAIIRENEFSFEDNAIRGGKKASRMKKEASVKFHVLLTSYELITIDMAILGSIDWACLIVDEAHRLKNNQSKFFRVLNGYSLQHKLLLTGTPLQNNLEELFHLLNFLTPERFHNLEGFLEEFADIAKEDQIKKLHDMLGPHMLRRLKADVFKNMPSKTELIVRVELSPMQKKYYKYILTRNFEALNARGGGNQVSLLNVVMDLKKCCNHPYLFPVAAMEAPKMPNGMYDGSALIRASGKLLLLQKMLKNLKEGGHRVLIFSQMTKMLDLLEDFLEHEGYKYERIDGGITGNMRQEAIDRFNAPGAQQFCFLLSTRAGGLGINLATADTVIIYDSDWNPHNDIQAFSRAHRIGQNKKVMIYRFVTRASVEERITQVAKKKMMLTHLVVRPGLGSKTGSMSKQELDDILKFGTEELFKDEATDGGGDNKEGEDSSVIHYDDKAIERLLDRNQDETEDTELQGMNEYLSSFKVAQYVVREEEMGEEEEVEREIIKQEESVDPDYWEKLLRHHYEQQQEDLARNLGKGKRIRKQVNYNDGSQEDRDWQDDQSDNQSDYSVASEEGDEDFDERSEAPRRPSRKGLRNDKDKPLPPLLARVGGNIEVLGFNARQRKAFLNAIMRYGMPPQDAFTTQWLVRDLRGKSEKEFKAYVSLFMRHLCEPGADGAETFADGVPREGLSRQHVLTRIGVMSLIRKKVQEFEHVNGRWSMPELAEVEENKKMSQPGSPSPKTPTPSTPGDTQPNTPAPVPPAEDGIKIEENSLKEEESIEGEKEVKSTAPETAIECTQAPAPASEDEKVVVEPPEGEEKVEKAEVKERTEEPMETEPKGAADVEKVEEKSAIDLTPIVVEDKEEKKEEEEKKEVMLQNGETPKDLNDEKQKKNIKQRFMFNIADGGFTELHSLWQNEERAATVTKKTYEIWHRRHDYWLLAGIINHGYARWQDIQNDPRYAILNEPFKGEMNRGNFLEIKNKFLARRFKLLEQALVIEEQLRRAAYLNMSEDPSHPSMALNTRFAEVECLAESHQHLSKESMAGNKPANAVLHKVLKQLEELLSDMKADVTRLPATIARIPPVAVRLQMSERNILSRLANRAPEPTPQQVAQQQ
Sequence of MELK (Q14680 whole entry): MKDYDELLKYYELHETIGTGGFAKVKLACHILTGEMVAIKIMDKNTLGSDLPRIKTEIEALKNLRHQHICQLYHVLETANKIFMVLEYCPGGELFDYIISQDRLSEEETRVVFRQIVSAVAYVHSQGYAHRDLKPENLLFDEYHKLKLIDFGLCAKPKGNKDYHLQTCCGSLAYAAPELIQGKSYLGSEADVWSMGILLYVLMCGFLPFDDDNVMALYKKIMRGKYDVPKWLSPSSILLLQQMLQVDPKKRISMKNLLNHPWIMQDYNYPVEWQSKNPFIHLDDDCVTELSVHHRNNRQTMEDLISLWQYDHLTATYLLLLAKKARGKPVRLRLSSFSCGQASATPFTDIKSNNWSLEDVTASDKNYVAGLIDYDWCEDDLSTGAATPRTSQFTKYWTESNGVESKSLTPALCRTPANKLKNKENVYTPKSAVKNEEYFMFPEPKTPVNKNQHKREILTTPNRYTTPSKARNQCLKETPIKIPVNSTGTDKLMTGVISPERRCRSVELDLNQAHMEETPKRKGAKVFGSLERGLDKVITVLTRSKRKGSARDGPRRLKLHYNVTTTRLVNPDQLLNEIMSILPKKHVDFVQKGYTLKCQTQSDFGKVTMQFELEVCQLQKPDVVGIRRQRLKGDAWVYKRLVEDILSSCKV
Sequence of FGFR2 (P21802 whole entry): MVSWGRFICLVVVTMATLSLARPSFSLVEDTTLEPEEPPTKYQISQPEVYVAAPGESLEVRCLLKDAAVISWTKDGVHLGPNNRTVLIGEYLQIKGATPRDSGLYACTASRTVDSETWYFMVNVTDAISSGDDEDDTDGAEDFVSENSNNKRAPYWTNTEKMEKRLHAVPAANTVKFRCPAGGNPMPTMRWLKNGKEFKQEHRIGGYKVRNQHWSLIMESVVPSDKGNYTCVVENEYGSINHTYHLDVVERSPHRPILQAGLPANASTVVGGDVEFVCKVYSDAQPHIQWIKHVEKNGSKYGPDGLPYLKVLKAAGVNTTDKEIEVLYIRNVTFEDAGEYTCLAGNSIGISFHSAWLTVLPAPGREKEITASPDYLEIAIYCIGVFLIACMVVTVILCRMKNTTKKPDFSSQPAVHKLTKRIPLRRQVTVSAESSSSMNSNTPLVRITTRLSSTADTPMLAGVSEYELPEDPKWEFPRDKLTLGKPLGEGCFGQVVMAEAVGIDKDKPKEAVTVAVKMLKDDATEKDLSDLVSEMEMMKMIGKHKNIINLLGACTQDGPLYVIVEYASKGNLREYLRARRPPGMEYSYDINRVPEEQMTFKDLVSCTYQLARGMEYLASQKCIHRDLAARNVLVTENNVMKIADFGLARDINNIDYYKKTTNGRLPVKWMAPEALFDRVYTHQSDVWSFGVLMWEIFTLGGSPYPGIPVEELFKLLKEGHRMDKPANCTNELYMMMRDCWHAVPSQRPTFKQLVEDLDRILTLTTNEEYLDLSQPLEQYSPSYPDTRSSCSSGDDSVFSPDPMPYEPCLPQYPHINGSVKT
T2 sequence (Q8N4C8 whole entry): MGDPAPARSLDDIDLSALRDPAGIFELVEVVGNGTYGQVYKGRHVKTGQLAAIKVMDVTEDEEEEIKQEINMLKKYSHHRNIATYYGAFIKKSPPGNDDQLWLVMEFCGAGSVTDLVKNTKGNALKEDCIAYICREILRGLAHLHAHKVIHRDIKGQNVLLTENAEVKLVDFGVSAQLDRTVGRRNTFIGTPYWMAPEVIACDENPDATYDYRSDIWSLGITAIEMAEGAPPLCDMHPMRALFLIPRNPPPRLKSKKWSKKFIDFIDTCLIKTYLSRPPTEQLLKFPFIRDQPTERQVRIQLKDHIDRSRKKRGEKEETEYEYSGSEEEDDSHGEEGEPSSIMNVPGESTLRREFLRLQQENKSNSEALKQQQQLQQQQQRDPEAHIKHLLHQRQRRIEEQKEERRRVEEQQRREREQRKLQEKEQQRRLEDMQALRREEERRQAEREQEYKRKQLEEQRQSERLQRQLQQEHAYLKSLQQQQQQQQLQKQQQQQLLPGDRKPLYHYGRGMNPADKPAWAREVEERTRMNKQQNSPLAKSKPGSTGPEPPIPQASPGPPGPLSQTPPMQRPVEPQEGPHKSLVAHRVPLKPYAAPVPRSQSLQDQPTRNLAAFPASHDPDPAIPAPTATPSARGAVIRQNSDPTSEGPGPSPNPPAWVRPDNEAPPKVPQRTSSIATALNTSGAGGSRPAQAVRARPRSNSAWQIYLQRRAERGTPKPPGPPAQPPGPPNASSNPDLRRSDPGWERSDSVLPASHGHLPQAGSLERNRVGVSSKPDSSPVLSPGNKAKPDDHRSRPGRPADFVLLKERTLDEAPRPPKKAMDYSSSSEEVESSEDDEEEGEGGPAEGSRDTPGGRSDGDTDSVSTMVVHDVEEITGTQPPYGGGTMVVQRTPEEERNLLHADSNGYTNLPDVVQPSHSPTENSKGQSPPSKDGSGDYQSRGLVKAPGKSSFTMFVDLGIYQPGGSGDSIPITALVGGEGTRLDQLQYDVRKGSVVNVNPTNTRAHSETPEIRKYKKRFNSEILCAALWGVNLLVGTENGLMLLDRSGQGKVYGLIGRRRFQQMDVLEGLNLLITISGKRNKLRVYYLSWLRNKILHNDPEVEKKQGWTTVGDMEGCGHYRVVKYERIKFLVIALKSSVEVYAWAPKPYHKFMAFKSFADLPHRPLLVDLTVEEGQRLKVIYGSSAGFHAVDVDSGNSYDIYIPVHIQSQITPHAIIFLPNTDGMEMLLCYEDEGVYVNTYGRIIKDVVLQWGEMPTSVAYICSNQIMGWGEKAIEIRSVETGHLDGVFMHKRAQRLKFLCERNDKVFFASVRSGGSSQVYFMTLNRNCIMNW
T3 sequence (Q6P2M8 whole entry): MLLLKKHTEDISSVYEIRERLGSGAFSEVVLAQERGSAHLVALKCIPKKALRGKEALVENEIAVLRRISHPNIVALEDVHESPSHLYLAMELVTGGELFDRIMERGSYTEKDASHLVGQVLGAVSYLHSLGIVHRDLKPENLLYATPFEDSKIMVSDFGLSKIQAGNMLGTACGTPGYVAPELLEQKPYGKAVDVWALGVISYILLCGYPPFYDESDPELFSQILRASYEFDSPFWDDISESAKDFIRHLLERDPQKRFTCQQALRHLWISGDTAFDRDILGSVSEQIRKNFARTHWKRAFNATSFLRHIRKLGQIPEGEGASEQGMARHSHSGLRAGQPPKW

The IC50 is the concentration that inhibits the measured activity by half. For `Cn1c(=O)[nH]c2ccc(-c3cccc(C(=O)NC4CCn5ccnc5C4)c3)cc21` (stereo not shown) [Z36-MP5], the “effectiveness after neutralization of CD8 T cells” value in experiment [1] was “completely abolished the effectiveness”. Further, the “CD4+ T-cell and Treg populations” value in experiment [2] is “not affected”. For the same compound, the “CD8+ T-cell population” value in experiment [2] is listed as “moderately induced”. For the same compound, the remaining binding at 1 µM came to 91% in experiment [3]; 37% in experiment [4]; 93% in [5]; 69% in experiment [6]; 59% in [7]; 85% in [8]. Moreover, in [9] (5 μM to 100 μM), the “expressions of Mi-2β target genes Cxcl9 and Cxcl10” value was “substantial increases”. Moreover, the “Mi-2β target gene expression (Cxcl9, Cxcl10 mRNA)” value in experiment [9] (25 µM, 24 h) was “induced Mi-2β target gene expression including Cxcl9 and Cxcl10”. Also, the “inhibition of Mi-2β ATPase” value in [10] (1 µM) is given as “completely inhibits”. For the same compound, the IC50 in [10] (ATP 10 μM) stood at 79 ± 13 nM; in experiment [10] (ATP 30 μM), 198 ± 33 nM; in [10] (ATP 100 μM) it was 576 ± 86 nM; in experiment [10] (ATP 300 μM), 1660 ± 358 nM; in [10] (Mi-2β chromatin modulatory activity, n = 3), 82 ± 13 nM. The mode of inhibition result in [10] (IC50 increased with ATP 10–300 µM) was “ATP-competitive inhibitor”. Moreover, in experiment [10] (ratio of IC50 values), the “potency relative to the original compound Z36” value is on record as ~ 85 fold.
